Data on two molecules can be found in US20100305161A1, “COMBINATIONS OF FUNGICIDAL AZOLES AND PYRION COMPOUNDS” (priority 2007, published 2010).

Common to all, as to assay: Poison Plate Assay, MIC and synergy of combinations
What all share (format): cell-based

The test system of assay [1] is Ulocladium atrum IMI214699a. The note with it: Alternaria atra, 336 h, ppm total active ingredient, growth evaluated after two weeks, 27° C., 70% relative humidity, read-out: MIC-values (minimum inhibitory concentration). As to the method: (§1) • Test models: Fungi: to each well of a 24-well microtiter plate, 1000 μl of a rich (Potato Dextrose Agar, PDA: 4 g potato infusion, 20 g bacto dextrose and 15 g bacto agar in 1 liter deionised water) or poor (Glucose Agar, GA: 10 g glucose, 1.5 g K2HPO4, 2 g KH2PO4, 1 g (NH4)2SO4, 0.5 g MgSO4 and 12.5 g agar in 1 liter deionised water) medium containing the appropriate combination of the test compounds in one of the concentrations of a dose series is added. The nutrient medium is inoculated with the test fungi by adding a spore/mycelium suspension (10 μl) or a small piece of agar from the margin of an actively growing colony and incubated under dark at 27° C. with 70% relative humidity. The growth of the fungi is evaluated after two weeks. • Bacteria: to each well of a 24-well microtiter plate, 1000 μL Tryptose Agar (TA, 20 g bacto tryptose agar, 5 g sodium chloride, 1 g bacto dextrose and 15 g agar in 1 liter deionised water), containing the test compounds in one of the concentrations of a dose series is added. The nutrient medium is inoculated by adding 10 μl of an actively growing liquid culture of the test bacteria in tryptose broth (without agar), and incubated under dark at 27° C. with 70% relative humidity.
A. G. Nass (1957) “Some aspects of the notions additivity, synergism and antagonism in the simultaneous activity of two antibacterial agents in vitro” Arch. intern. […]

The test system of assay [2] is Coriolus versicolor CTB863A. Particulars: Trametes versicolor, 336 h, ppm total active ingredient, growth evaluated after two weeks, 27° C., 70% relative humidity, read-out: MIC-values (minimum inhibitory concentration). As to the method: as §1
(§2) When the Synergy Index is greater than 1.0, antagonism is indicated. When the SI is equal to 1.0, additivity is indicated.

Assay [3] deals with Chaetomium globosum ATCC6205. Particulars: ATCC6205, 336 h, ppm total active ingredient, growth evaluated after two weeks, 27° C., 70% relative humidity, read-out: MIC-values (minimum inhibitory concentration). As to the method:
as §1, §2

Consider `CCCC1COC(Cn2cncn2)(c2ccc(Cl)cc2Cl)O1` (stereo not shown) [(I-m) + (II-a) 100 + 0, 1-[[2-(2,4-dichlorophenyl)-4-propyl-1,3-dioxolan-2-yl]methyl]-1H-1,2,4-triazole], for which the MIC in assay [1] came to 33.3 µg/mL; in assay [2] it was 1.88 µg/mL; in assay [3], 5.01 µg/mL.
`[O-][n+]1ccccc1SSc1cccc[n+]1[O-]` [(I-n) + (II-g) 0 + 100, pyrion disulfide]: the MIC in assay [1] amounted to 1.88 µg/mL.
